According to US20180280528A1, “ANTIFOLATE CONJUGATES FOR TREATING INFLAMMATION” (ENDOCYTE, INC., priority 2015, published 2018):

Legend:
[1] = Pharmacokinetics in rats
Description: Each rat was used for collection of blood samples for a maximum of 4 time points. […] The samples were centrifuged for 3 minutes at 2000×g (Eppendorf 5417R centrifuge) to obtain plasma. The plasma samples were stored at −80° C. until LC-MS/MS analysis.
(§1) LC-MS/MS analysis utilized a Waters Acquity UPLC system paired with a Waters Quattro Premier XE tandem quadrupole mass spectrometer operating in ESI positive mode. Prior to injection, K3EDTA plasma samples were processed using a Phenomenex Strata X-A solid phase extraction (SPE) plate. All plasma samples were fortified with N-Maleoyl-β-alanine, mannitol, and acetic acid. Briefly, 50 μL of plasma diluted with 50 μL of internal standard solution and 500 μL 1000:4:1.5 water:ammonium hydroxide:formic acid was mixed and loaded onto a preconditioned Strata X-A SPE plate. Aqueous and organic washes were then applied followed by elution of all analytes with 300:200:7.5 methanol:water:formic acid. The samples were evaporated until approximately 30 μL remained in all wells and 30 μL of 9:1 water:ammonium hydroxide was then added. Finally, the plate was sealed, mixed, and centrifuged prior to transfer to the 2-8° C. Acquity autosampler. Note: During EC1669 analysis, EC0470 was converted to a hydrazone product for bioanalysis. Acetone (500 μL) was added to all samples after the first evaporation step followed by sealing all wells and heating at 50° C. for one hour. After this step, the acetone was evaporated and the extraction completed as described above.
(§2) A 10 μL sample volume was applied to the Waters BEH Shield RP18 100×2.1 mm, […] UPLC column operating at a flow rate of 0.4 mL/min while being maintained at 45° C. A gradient between mobile phase A (1000:4:1.5 water:ammonium hydroxide:formic acid) and mobile phase B (acetonitrile) was used to separate the analytes. The gradient was held at 2% B for the first 30 seconds of the chromatographic run followed by increasing to 20% B by 2.5 minutes. A rapid gradient from 60-90% B is then used to clean the column prior to equilibration at 2% B to complete the 4 minute run cycle.
(§3) For EC1669 MS/MS analysis, EC1669 and its known major metabolites, EC1886 and […], were optimized and monitored. […] In all cases, internal standard response was used to generate response ratios for each analyte. When calibrated, data was regressed using MassLynx 4.1 software. The table below lists transitions for analytes and internal standards monitored for LC-MS/MS bioanalysis.

[2] = Pharmacokinetics in dogs; conditions: for half-life: male
Description: (§4) The samples were centrifuged under refrigeration for at least 10 minutes at 3000 rpm and the plasma generated stored at −20° C. until LC-MS/MS analysis.
as §4, §1, §2, §3

[3] = tested on: Rat adjuvant arthritis (AIA); assay: Rat adjuvant arthritis (AIA) treatment studies; format: in vivo
Description: Female Lewis rats (175-200 g) were purchased from Harlan Sprague Dawley (Indianapolis, Ind.) and allowed to acclimate for 1 week. Generally, rats were fed a folate-deficient diet (Harlan Teklad) for 9-10 days prior to arthritis induction.
Rat adjuvant arthritis (AIA) was induced by intradermal inoculation (at the base of tail) of 0.45-0.46 mg of heat-killed Mycobacteria butyricum (BD Diagnostic Systems, Sparks, Md.) in 100 μL light mineral oil (Sigma). […] During the course of disease development, animals were weighed at least 3 times a week. Paw edema (degree of arthritis) were scored 3 times a week as follows: 0=no edema or arthritis; 1=swelling in one type of joint; 2=swelling in two types of joint; 3=swelling in three types of joint; 4=swelling of the entire paw. A total score for each rat is calculated by adding up the scores for each of the four paws, giving a maximum of 16 per animal.
On the first day of treatment, rats with desired arthritis scores were distributed evenly across the control and treatment groups (n=5). […] All compounds and conjugates were administered subcutaneously (s.c.) starting 9 days after arthritis induction with biweekly (BIW, Mondays and Thursdays) or once-a-week (QW, Mondays) dosing for two consecutive weeks. At the completion of each study (˜4 days after the last treatment), rats were euthanized by CO2 asphyxiation and processed for paw weight (cut at the hairline) and spleen weight.
The rat AIA model resembles many characteristics of human rheumatoid arthritis and it is very aggressive. […] The animals in the AIA control group were left untreated.

[4] = rat plasma, EC1669 dosed SC 500 nmol/kg
[5] = beagle dog plasma, EC1669 dosed SC 2.4 mg/kg (1073 nmol/kg), N=4
[6] = female, Lewis, rat, in vivo, sc, 500 nmol/kg
[7] = beagle, dog, in vivo, sc, 2.4 mg/kg

NNC(=O)CC[C@H](NC(=O)c1ccc(NCc2cnc3nc(N)nc(N)c3n2)cc1)C(=O)O [EC0470, aminopterin gamma-hydrazide]
AUCinf [1, 4]: 0.0659 µM·h
AUClast [1, 4]: 0.0647 µM·h
Cmax [1, 4]: 21.2 nM
Tmax [1, 4]: 1 h
t1/2 [1, 4]: 1.64 h
AUClast [2, 5]: 0.51 µM·h
Cmax [2, 5]: 66.5 nM
Tmax [2, 5]: 3.25 h
t1/2 [2, 5]: 4.38 h

Nc1nc(N)c2nc(CNc3ccc(C(=O)N[C@@H](CCC(=O)O)C(=O)O)cc3)cnc2n1 [EC1886, aminopterin, reference compound]
AUCinf [1, 6]: 0.0956 µM·h
AUClast [1, 6]: 0.0947 µM·h
half-life [1, 6]: 0.997 h
AUC(0-inf) ([1]; female, Lewis, rat, in vivo, sc, 500 nmol/kg, AUCinf): 0.107 µM·h
AUClast ([2]; beagle dog plasma, EC2319 dosed SC 2.43 mg/kg (1074 nmol/kg), N=2): 0.157 µM·h
AUC(0-t) [2, 7]: 0.0417 µM·h
Cmax [2, 7]: 9.41 nM
Tmax [2, 7]: 3.5 h
AUClast of aminopterin released, higher from EC2319 than from EC1669 ([2]; dogs, subcutaneous dosing): ~3.8 fold
Cmax of aminopterin released, higher from EC2319 than from EC1669 ([2]; dogs, subcutaneous dosing): ~2.6 fold
half-life ([2]; beagle, dog, in vivo, iv, 1 mg/kg): 2 h
half-life ([2]; beagle, dog, in vivo, sc, 2.43 mg/kg): 2.74 h

N=c1[nH]c(N)nc2ncc(CNc3ccc(C(=O)N[C@@H](CCC(=O)NCCSSC[C@@H](NC(=O)[C@H](CCC(=O)NC[C@H](O)[C@@H](O)[C@H](O)[C@H](O)CO)NC(=O)[C@@H](CCC(=O)O)NC(=O)[C@H](CCC(=O)NC[C@H](O)[C@@H](O)[C@H](O)[C@H](O)CO)NC(=O)[C@@H](CCC(=O)O)NC(=O)[C@H](CCC(=O)NC[C@H](O)[C@@H](O)[C@H](O)[C@H](O)CO)NC(=O)CC[C@H](NC(=O)c4ccc(NCc5cnc6nc(N)[nH]c(=O)c6n5)cc4)C(=O)O)C(=O)O)C(=O)O)cc3)nc12 [EC2285]
anti-arthritic activity with concurrent EC0923 (arthritis score, paw weight, spleen weight, body weight) ([3]; Study 2, 500 nmol/kg BIW plus 500-fold molar excess EC0923 (250 μmol/kg)): fully blocked by EC0923

COC(=O)[C@H](CCCCNC(=O)[C@H](CCC(=O)NC[C@H](O)[C@@H](O)[C@H](O)[C@H](O)CO)NC(=O)[C@H](CCC(=O)O)NC(=O)[C@H](CCC(=O)NC[C@H](O)[C@@H](O)[C@H](O)[C@H](O)CO)NC(=O)[C@H](CCC(=O)O)NC(=O)[C@H](CCC(=O)NC[C@H](O)[C@@H](O)[C@H](O)[C@H](O)CO)NC(=O)CC[C@H](NC(=O)c1ccc(NCc2cnc3nc(N)[nH]c(=O)c3n2)cc1)C(=O)O)NC(=O)CC[C@H](NC(=O)c1ccc(NCc2cnc3nc(N)[nH]c(=N)c3n2)cc1)C(=O)O [EC2413]
anti-arthritic activity ([3]; Study 3, 500 nmol/kg, BIW): significant anti-arthritic activity
body weight ([3]; Study 3, 500 nmol/kg, BIW): maintained a good body weight
decreasing arthritis score, paw weight, and spleen weight ([3]; Study 3, 500 nmol/kg, BIW, two consecutive weeks): inferior to both EC2319 and EC1669
effectiveness in all parameters assessed ([3]; Study 3, 1000 nmol/kg (QW)): less effective than EC2413 dosed at 500 nmol/kg (BIW)

COC(=O)[C@H](CSC1CC(=O)N(CCC(=O)O)C1=O)NC(=O)CC[C@H](NC(=O)c1ccc(NCc2cnc3nc(N)[nH]c(=N)c3n2)cc1)C(=O)O (stereo partly shown) [EC2496]
half-life ([2]; beagle, dog, plasma, iv, 1 mg/kg): 1.28 h
half-life ([2]; beagle, dog, plasma, sc, 2.43 mg/kg): 2.14 h
